According to paper PMC11953117 (Cancer Chemotherapy and Pharmacology, 2025):
Read-outs that look alike come from different tables or passages of the source.

How the values were obtained:
AKT = tested on: AKT; set-up: method as in PMID 29066505; conditions: 480 mg BID [4/3] versus 320 mg continuous dosing; cited from earlier work
[1] = Capivasertib exposure metrics at steady state projected with PopPK model, patients with solid tumors; format: in vivo; conditions: human, plasma, oral; for concentration at 12 h: read-out: Cmin
Experimental: Study 1 (NCT01226316) was a phase 1 open-label multipart study. […] The duration of the treatment cycles was 21 days. […] [18]. […] [18, 25, 39].
Study 4 (NCT01353781) was a phase 1 dose-escalation study in Japanese patients with advanced solid malignancies.
The exposure–response analyses were conducted using a subset of patients from the PopPK analysis where capivasertib was used as monotherapy. […] As different schedules were assessed between and within studies, the exposure metrics were derived for the last dose of the last dosing day in the second week of treatment (i.e. on days 14, 11, and 9 for the continuous, [4/3] and [2/5] schedules, respectively), to ensure SS conditions, using the planned dose. […] The relative dose intensity (RDI) was calculated as the percentage of the average weekly dose relative to the PWD to examine the tolerability of capivasertib monotherapy at the given dosing schedules.

[2] = cited from earlier work
[3] = 80 mg, Study 1, Continuous BID, PWD 1120 mg, N=5, median (range)
[4] = 80 mg, Study 4 (Japanese patients), Continuous BID, PWD 1120 mg, N=3, median (range)
[5] = 240 mg, Study 4 (Japanese patients), Continuous BID, PWD 3360 mg, N=7, median (range)
[6] = 320 mg, Study 4 (Japanese patients), Continuous BID, PWD 4480 mg, N=6, median (range)
[7] = 360 mg, Study 4 (Japanese patients), [4/3] BID, PWD 2880 mg, N=8, median (range)
[8] = 400 mg, Study 4 (Japanese patients), Continuous BID, PWD 5600 mg, N=5, median (range)
[9] = 480 mg, OAK, [4/3] BID, PWD 3840 mg, N=30, median (range)
[10] = 480 mg, Study 1, [4/3] BID, PWD 3840 mg, N=127, median (range)
[11] = 480 mg, Study 4 (Japanese patients), [4/3] BID, PWD 3840 mg, N=6, median (range)
[12] = 600 mg, Study 1, Continuous BID, PWD 8400 mg, N=2, median (range)
[13] = 640 mg, Study 1, [2/5] BID, PWD 2560 mg, N=8, median (range)
[14] = 640 mg, Study 1, [4/3] BID, PWD 5120 mg, N=10, median (range)
[15] = 640 mg, Study 4 (Japanese patients), [2/5] BID, PWD 2560 mg, N=6, median (range)
[16] = 800 mg, Study 1, [2/5] BID, PWD 3200 mg, N=14, median (range)

## NC1(C(=O)N[C@@H](CCO)c2ccc(Cl)cc2)CCN(c2ncnc3[nH]ccc23)CC1 [capivasertib, 4-amino-N-[(1S)-1-(4-chlorophenyl)-3-hydroxypropyl]-1-(7H-pyrrolo[2,3-d]pyrimidin– 4-yl)piperidine-4-carboxamide]
AKT
  target engagement in tumor tissue: greater target engagement
[1]; 80 mg, Study 1, Continuous BID, 80 mg, PWD 1120 mg, N=5, median (range), read-out: AUCss(0–12 h)
  AUC: 870 ng·h/mL
[1]; 80 mg, Study 1, Continuous BID, 80 mg, PWD 1120 mg, N=5, median (range)
  concentration at 12 h: 30 ng/mL
[1]; [3]
  AUC at 1 week: 12200 ng·h/mL
  Cmax: 150 ng/mL
[1]; 80 mg, Study 4 (Japanese patients), Continuous BID, 80 mg, PWD 1120 mg, N=3, median (range), read-out: AUCss(0–12 h)
  AUC: 1480 ng·h/mL
[1]; 80 mg, Study 4 (Japanese patients), Continuous BID, 80 mg, PWD 1120 mg, N=3, median (range)
  concentration at 12 h: 60 ng/mL
[1]; [4]
  AUC at 1 week: 20700 ng·h/mL
  Cmax: 220 ng/mL
[1]; 160 mg, Study 1, Continuous BID, 160 mg, PWD 2240 mg, N=5, median (range), read-out: AUCPWD
  AUC: 41800 ng·h/mL
[1]; 160 mg, Study 1, Continuous BID, 160 mg, PWD 2240 mg, N=5, median (range), read-out: AUCss(0–12 h)
  AUC: 2990 ng·h/mL
[1]; 160 mg, Study 1, Continuous BID, 160 mg, PWD 2240 mg, N=5, median (range)
  concentration at 12 h: 110 ng/mL
[1]; 160 mg, Study 1, Continuous BID, PWD 2240 mg, N=5, median (range)
  Cmax: 420 ng/mL
[1]; 240 mg, Study 1, Continuous BID, 240 mg, PWD 3360 mg, N=6, median (range), read-out: AUCPWD
  AUC: 44700 ng·h/mL
[1]; 240 mg, Study 1, Continuous BID, 240 mg, PWD 3360 mg, N=6, median (range), read-out: AUCss(0–12 h)
  AUC: 3190 ng·h/mL
[1]; 240 mg, Study 1, Continuous BID, 240 mg, PWD 3360 mg, N=6, median (range)
  concentration at 12 h: 110 ng/mL
[1]; 240 mg, Study 1, Continuous BID, PWD 3360 mg, N=6, median (range)
  Cmax: 530 ng/mL
[1]; 240 mg, Study 4 (Japanese patients), Continuous BID, 240 mg, PWD 3360 mg, N=7, median (range), read-out: AUCss(0–12 h)
  AUC: 5220 ng·h/mL
[1]; 240 mg, Study 4 (Japanese patients), Continuous BID, 240 mg, PWD 3360 mg, N=7, median (range)
  concentration at 12 h: 170 ng/mL
[1]; [5]
  AUC at 1 week: 73000 ng·h/mL
  Cmax: 820 ng/mL
[1]; 320 mg, Study 1, Continuous BID, 320 mg, PWD 4480 mg, N=12, median (range), read-out: AUCPWD
  AUC: 82000 ng·h/mL
[1]; 320 mg, Study 1, Continuous BID, 320 mg, PWD 4480 mg, N=12, median (range), read-out: AUCss(0–12 h)
  AUC: 5860 ng·h/mL
[1]; 320 mg, Study 1, Continuous BID, 320 mg, PWD 4480 mg, N=12, median (range)
  concentration at 12 h: 200 ng/mL
[1]; 320 mg, Study 1, Continuous BID, PWD 4480 mg, N=12, median (range)
  Cmax: 870 ng/mL
[1]; 320 mg, Study 4 (Japanese patients), Continuous BID, 320 mg, PWD 4480 mg, N=6, median (range), read-out: AUCss(0–12 h)
  AUC: 6560 ng·h/mL
[1]; 320 mg, Study 4 (Japanese patients), Continuous BID, 320 mg, PWD 4480 mg, N=6, median (range)
  concentration at 12 h: 150 ng/mL
[1]; [6]
  AUC at 1 week: 91800 ng·h/mL
  Cmax: 1380 ng/mL
[1]; 360 mg, Study 4 (Japanese patients), [4/3] BID, 360 mg, PWD 2880 mg, N=8, median (range), read-out: AUCss(0–12 h)
  AUC: 6100 ng·h/mL
[1]; 360 mg, Study 4 (Japanese patients), [4/3] BID, 360 mg, PWD 2880 mg, N=8, median (range)
  concentration at 12 h: 210 ng/mL
[1]; [7]
  AUC at 1 week: 48800 ng·h/mL
  Cmax: 960 ng/mL
[1]; 400 mg, Study 1, Continuous BID, 400 mg, PWD 5600 mg, N=11, median (range), read-out: AUCPWD
  AUC: 81000 ng·h/mL
[1]; 400 mg, Study 1, Continuous BID, 400 mg, PWD 5600 mg, N=11, median (range), read-out: AUCss(0–12 h)
  AUC: 5790 ng·h/mL
[1]; 400 mg, Study 1, Continuous BID, 400 mg, PWD 5600 mg, N=11, median (range)
  concentration at 12 h: 190 ng/mL
[1]; 400 mg, Study 1, Continuous BID, PWD 5600 mg, N=11, median (range)
  Cmax: 900 ng/mL
[1]; 400 mg, Study 4 (Japanese patients), Continuous BID, 400 mg, PWD 5600 mg, N=5, median (range), read-out: AUCss(0–12 h)
  AUC: 7750 ng·h/mL
[1]; 400 mg, Study 4 (Japanese patients), Continuous BID, 400 mg, PWD 5600 mg, N=5, median (range)
  concentration at 12 h: 270 ng/mL
[1]; [8]
  AUC at 1 week: 109000 ng·h/mL
  Cmax: 1240 ng/mL
[1]; 480 mg, OAK, [4/3] BID, 480 mg, PWD 3840 mg, N=30, median (range), read-out: AUCss(0–12 h)
  AUC: 9750 ng·h/mL
[1]; 480 mg, OAK, [4/3] BID, 480 mg, PWD 3840 mg, N=30, median (range)
  concentration at 12 h: 330 ng/mL
[1]; [9]
  AUC at 1 week: 78000 ng·h/mL
  Cmax: 1580 ng/mL
[1]; 480 mg, Study 1, Continuous BID, 480 mg, PWD 6720 mg, N=6, median (range), read-out: AUCPWD
  AUC: 140000 ng·h/mL
[1]; 480 mg, Study 1, Continuous BID, 480 mg, PWD 6720 mg, N=6, median (range), read-out: AUCss(0–12 h)
  AUC: 9980 ng·h/mL
[1]; 480 mg, Study 1, Continuous BID, 480 mg, PWD 6720 mg, N=6, median (range)
  concentration at 12 h: 370 ng/mL
[1]; 480 mg, Study 1, Continuous BID, PWD 6720 mg, N=6, median (range)
  Cmax: 1620 ng/mL
[1]; 480 mg, Study 1, [4/3] BID, 480 mg, PWD 3840 mg, N=127, median (range), read-out: AUCss(0–12 h)
  AUC: 9690 ng·h/mL
[1]; 480 mg, Study 1, [4/3] BID, 480 mg, PWD 3840 mg, N=127, median (range)
  concentration at 12 h: 330 ng/mL
[1]; [10]
  AUC at 1 week: 77400 ng·h/mL
  Cmax: 1590 ng/mL
[1]; 480 mg, Study 4 (Japanese patients), [4/3] BID, 480 mg, PWD 3840 mg, N=6, median (range), read-out: AUCss(0–12 h)
  AUC: 10800 ng·h/mL
[1]; 480 mg, Study 4 (Japanese patients), [4/3] BID, 480 mg, PWD 3840 mg, N=6, median (range)
  concentration at 12 h: 290 ng/mL
[1]; [11]
  AUC at 1 week: 86800 ng·h/mL
  Cmax: 1880 ng/mL
[1]; 600 mg, Study 1, Continuous BID, 600 mg, PWD 8400 mg, N=2, median (range), read-out: AUCss(0–12 h)
  AUC: 14300 ng·h/mL
[1]; 600 mg, Study 1, Continuous BID, 600 mg, PWD 8400 mg, N=2, median (range)
  concentration at 12 h: 460 ng/mL
[1]; [12]
  AUC at 1 week: 200000 ng·h/mL
  Cmax: 2520 ng/mL
[1]; 640 mg, Study 1, [2/5] BID, 640 mg, PWD 2560 mg, N=8, median (range), read-out: AUCss(0–12 h)
  AUC: 15000 ng·h/mL
[1]; 640 mg, Study 1, [2/5] BID, 640 mg, PWD 2560 mg, N=8, median (range)
  concentration at 12 h: 570 ng/mL
[1]; [13]
  AUC at 1 week: 59800 ng·h/mL
  Cmax: 2080 ng/mL
[1]; 640 mg, Study 1, [4/3] BID, 640 mg, PWD 5120 mg, N=10, median (range), read-out: AUCss(0–12 h)
  AUC: 15900 ng·h/mL
[1]; 640 mg, Study 1, [4/3] BID, 640 mg, PWD 5120 mg, N=10, median (range)
  concentration at 12 h: 550 ng/mL
[1]; [14]
  AUC at 1 week: 127000 ng·h/mL
  Cmax: 2430 ng/mL
[1]; 640 mg, Study 4 (Japanese patients), [2/5] BID, 640 mg, PWD 2560 mg, N=6, median (range), read-out: AUCss(0–12 h)
  AUC: 15200 ng·h/mL
[1]; 640 mg, Study 4 (Japanese patients), [2/5] BID, 640 mg, PWD 2560 mg, N=6, median (range)
  concentration at 12 h: 570 ng/mL
[1]; [15]
  AUC at 1 week: 61000 ng·h/mL
  Cmax: 2480 ng/mL
[1]; 800 mg, Study 1, [2/5] BID, 800 mg, PWD 3200 mg, N=14, median (range), read-out: AUCss(0–12 h)
  AUC: 26400 ng·h/mL
[1]; 800 mg, Study 1, [2/5] BID, 800 mg, PWD 3200 mg, N=14, median (range)
  concentration at 12 h: 1080 ng/mL
[1]; [16]
  AUC at 1 week: 106000 ng·h/mL
  Cmax: 3930 ng/mL
[2]; dose range of 80–480 mg
  dose proportionality of plasma exposure: approximately dose proportional
[2]; patients
  half-life: approximately 8 h
